Data as given in US12459918B2, “Isoquinolinone derivatives serving as rock protein kinase inhibitors and use thereof” (GUANGZHOU OCUSUN OPHTHALMIC BIOTECHNOLOGY CO., LTD., priority 2019, dated 2025).

How the values were obtained:
[1] = system: New Zealand rabbits with acute ocular hypertension; experiment: Intraocular pressure reduction experiment in New Zealand rabbits with acute ocular hypertension, experiment operation 2; assay type: in vivo; conditions: for Intraocular pressure in the left eye: left eye (solvent, not modeled)
Source text: Experimental Example 3. Intraocular Pressure Reduction Experiment in New Zealand Rabbits with Acute Ocular Hypertension
Acute ocular hypertension of rabbits were induced by anterior chamber injection of a viscoelastic agent and the intraocular pressure reduction action of compound 60 and compound 63 at different concentrations were explored by eye-drop administration.
Male New Zealand rabbits, aged 97-127 days, weighted 2.5-3.4 kg, purchased from PizhouDongfang Breeding Co. Ltd.
50 male New Zealand rabbits were randomly divided into 5 groups according to body weight, with 10 rabbits/per group Animals in 1-5 groups were injected with medical sodium hyaluronate gel in the anterior chamber of right eye in a single dose, 100 μL/eye, to induce ocular hypertension. In 5-15 minutes after modeling, the right eye was respectively dropped with a solvent, K-115 and test samples (compound 63 at different concentrations), the left eye was dropped with a solvent, the volume of the administration was all 50 μL/eye, and intraocular pressure in both eyes of the animals was measured before administration and in 2, 4, 6, 8 and 10 hours after administration, respectively.

[2] = system: New Zealand rabbits with normal intraocular pressure; experiment: Repeated eye-drop administration for 14 days, experiment operation 2: Day 1 intraocular pressure; assay type: in vivo; conditions: for Mean intraocular pressure of both eyes: saline in left, Day 1
Source text: Experimental example 4. Experiment on reduction of intraocular pressure and ocular toxicity of New Zealand rabbits with normal intraocular pressure by repeated eye-drop administration for 14 days
The intraocular pressure reduction action and the potential ocular toxicity of compound 63 were explored by 14 days of repeated eye-drop administration in rabbits with normal intraocular pressure.
Male New Zealand rabbits, aged 97-127 days, weighted 2.6-3.5 kg, purchased from PizhouDongfang Breeding Co. Ltd.
42 male New Zealand rabbits were randomly divided into 7 groups, with 6 rabbits per group. Animals were randomly divided according to body weight Animals in 1-7 groups were eye-dropped with normal saline in the left eye and with solvent/control sample/test sample in the right eye respectively by a volume of 50 μL/eye, once per day for 14 consecutive days, and the day of administration was recorded as Day 1. The intraocular pressure of the animals was measured before Day 1 administration and in 1, 2, 4, 6, 8 and 10 hours after Day 1 administration, respectively (Table 8).

With `Cc1ccc(C(=O)OCn2cc(C)c3c(S(=O)(=O)N4CC[C@H](N)C4)cccc3c2=O)c(C)c1` [Compound 63] the “Intraocular pressure in the left eye” value ([1]; 0.25 mg/mL group, 2 hours after administration) was 6.07 mmHg, the “Intraocular pressure in the left eye” value ([1]; 0.25 mg/mL group, 4 hours after administration) was 6.60 mmHg and the “Intraocular pressure in the left eye” value ([1]; 0.25 mg/mL group, 6 hours after administration) was 9.10 mmHg. The “Intraocular pressure in the left eye” value ([1]; 0.25 mg/mL group, 8 hours after administration) was 11.50 mmHg, the “Intraocular pressure in the left eye” value ([1]; 0.25 mg/mL group, 10 hours after administration) was 12.43 mmHg and the “Intraocular pressure in the left eye” value ([1]; 0.25 mg/mL group, before administration) was 10.53 mmHg. For the same compound, the “Intraocular pressure in the right eye” value ([1]; 0.25 mg/mL in right eye (induced ocular hypertension), 2 hours after administration) was 8.47 mmHg, the “Intraocular pressure in the right eye” value ([1]; 0.25 mg/mL in right eye (induced ocular hypertension), 4 hours after administration) was 8.60 mmHg and the “Intraocular pressure in the right eye” value ([1]; 0.25 mg/mL in right eye (induced ocular hypertension), 6 hours after administration) was 11.20 mmHg. The “Intraocular pressure in the right eye” value ([1]; 0.25 mg/mL in right eye (induced ocular hypertension), 8 hours after administration) was 13.37 mmHg, the “Intraocular pressure in the right eye” value ([1]; 0.25 mg/mL in right eye (induced ocular hypertension), 10 hours after administration) was 13.10 mmHg and the “Intraocular pressure in the right eye” value ([1]; 0.25 mg/mL in right eye (induced ocular hypertension), before administration) was 11.43 mmHg. The “Intraocular pressure in the left eye” value ([1]; 2.0 mg/mL group, 2 hours after administration) was 6.60 mmHg, the “Intraocular pressure in the left eye” value ([1]; 2.0 mg/mL group, 4 hours after administration) was 7.04 mmHg and the “Intraocular pressure in the left eye” value ([1]; 2.0 mg/mL group, 6 hours after administration) was 11.23 mmHg. For the same compound, the “Intraocular pressure in the left eye” value ([1]; 2.0 mg/mL group, 8 hours after administration) was 12.84 mmHg, the “Intraocular pressure in the left eye” value ([1]; 2.0 mg/mL group, 10 hours after administration) was 13.10 mmHg and the “Intraocular pressure in the left eye” value ([1]; 2.0 mg/mL group, before administration) was 11.27 mmHg. The “Intraocular pressure in the right eye” value ([1]; 2.0 mg/mL in right eye (induced ocular hypertension), 2 hours after administration) was 8.52 mmHg, the “Intraocular pressure in the right eye” value ([1]; 2.0 mg/mL in right eye (induced ocular hypertension), 4 hours after administration) was 11.56 mmHg and the “Intraocular pressure in the right eye” value ([1]; 2.0 mg/mL in right eye (induced ocular hypertension), 6 hours after administration) was 13.81 mmHg. For the same compound, the “Intraocular pressure in the right eye” value ([1]; 2.0 mg/mL in right eye (induced ocular hypertension), 8 hours after administration) was 12.96 mmHg, the “Intraocular pressure in the right eye” value ([1]; 2.0 mg/mL in right eye (induced ocular hypertension), 10 hours after administration) was 11.96 mmHg and the “Intraocular pressure in the right eye” value ([1]; 2.0 mg/mL in right eye (induced ocular hypertension), before administration) was 11.23 mmHg. The “Intraocular pressure in the left eye” value ([1]; 8.0 mg/mL group, 2 hours after administration) was 5.93 mmHg, the “Intraocular pressure in the left eye” value ([1]; 8.0 mg/mL group, 4 hours after administration) was 6.43 mmHg and the “Intraocular pressure in the left eye” value ([1]; 8.0 mg/mL group, 6 hours after administration) was 10.10 mmHg. The “Intraocular pressure in the left eye” value ([1]; 8.0 mg/mL group, 8 hours after administration) was 11.87 mmHg, the “Intraocular pressure in the left eye” value ([1]; 8.0 mg/mL group, 10 hours after administration) was 13.19 mmHg and the “Intraocular pressure in the left eye” value ([1]; 8.0 mg/mL group, before administration) was 11.20 mmHg. The “Intraocular pressure in the right eye” value ([1]; 8.0 mg/mL in right eye (induced ocular hypertension), 2 hours after administration) was 7.40 mmHg, the “Intraocular pressure in the right eye” value ([1]; 8.0 mg/mL in right eye (induced ocular hypertension), 4 hours after administration) was 7.97 mmHg and the “Intraocular pressure in the right eye” value ([1]; 8.0 mg/mL in right eye (induced ocular hypertension), 6 hours after administration) was 8.84 mmHg. The “Intraocular pressure in the right eye” value ([1]; 8.0 mg/mL in right eye (induced ocular hypertension), 8 hours after administration) was 8.60 mmHg, the “Intraocular pressure in the right eye” value ([1]; 8.0 mg/mL in right eye (induced ocular hypertension), 10 hours after administration) was 8.78 mmHg and the “Intraocular pressure in the right eye” value ([1]; 8.0 mg/mL in right eye (induced ocular hypertension), before administration) was 11.53 mmHg. For the same compound, the “Mean intraocular pressure of both eyes” value ([2]; 0.25 mg/mL in right eye, 1 hour after administration) was 6.22 mmHg, the “Mean intraocular pressure of both eyes” value ([2]; 0.25 mg/mL in right eye, 2 hours after administration) was 6.17 mmHg and the “Mean intraocular pressure of both eyes” value ([2]; 0.25 mg/mL in right eye, 4 hours after administration) was 6.67 mmHg. The “Mean intraocular pressure of both eyes” value ([2]; 0.25 mg/mL in right eye, 6 hours after administration) was 8.06 mmHg, the “Mean intraocular pressure of both eyes” value ([2]; 0.25 mg/mL in right eye, 8 hours after administration) was 9.72 mmHg and the “Mean intraocular pressure of both eyes” value ([2]; 0.25 mg/mL in right eye, 10 hours after administration) was 10.95 mmHg. For the same compound, the “Mean intraocular pressure of both eyes” value ([2]; 0.25 mg/mL in right eye, before administration) was 9.84 mmHg, the “Mean intraocular pressure of both eyes” value ([2]; 0.5 mg/mL in right eye, 1 hour after administration) was 5.39 mmHg and the “Mean intraocular pressure of both eyes” value ([2]; 0.5 mg/mL in right eye, 2 hours after administration) was 5.50 mmHg. For the same compound, the “Mean intraocular pressure of both eyes” value ([2]; 0.5 mg/mL in right eye, 4 hours after administration) was 6.95 mmHg, the “Mean intraocular pressure of both eyes” value ([2]; 0.5 mg/mL in right eye, 6 hours after administration) was 8.94 mmHg and the “Mean intraocular pressure of both eyes” value ([2]; 0.5 mg/mL in right eye, 8 hours after administration) was 9.89 mmHg. The “Mean intraocular pressure of both eyes” value ([2]; 0.5 mg/mL in right eye, 10 hours after administration) was 11.56 mmHg, the “Mean intraocular pressure of both eyes” value ([2]; 0.5 mg/mL in right eye, before administration) was 9.22 mmHg and the “Mean intraocular pressure of both eyes” value ([2]; 1.0 mg/mL in right eye, 1 hour after administration) was 5.56 mmHg. For the same compound, the “Mean intraocular pressure of both eyes” value ([2]; 1.0 mg/mL in right eye, 2 hours after administration) was 5.39 mmHg, the “Mean intraocular pressure of both eyes” value ([2]; 1.0 mg/mL in right eye, 4 hours after administration) was 6.67 mmHg and the “Mean intraocular pressure of both eyes” value ([2]; 1.0 mg/mL in right eye, 6 hours after administration) was 7.33 mmHg. For the same compound, the “Mean intraocular pressure of both eyes” value ([2]; 1.0 mg/mL in right eye, 8 hours after administration) was 10.50 mmHg, the “Mean intraocular pressure of both eyes” value ([2]; 1.0 mg/mL in right eye, 10 hours after administration) was 10.89 mmHg and the “Mean intraocular pressure of both eyes” value ([2]; 1.0 mg/mL in right eye, before administration) was 9.17 mmHg. The “Mean intraocular pressure of both eyes” value ([2]; 2.0 mg/mL in right eye, 1 hour after administration) was 8.11 mmHg, the “Mean intraocular pressure of both eyes” value ([2]; 2.0 mg/mL in right eye, 2 hours after administration) was 5.84 mmHg and the “Mean intraocular pressure of both eyes” value ([2]; 2.0 mg/mL in right eye, 4 hours after administration) was 6.06 mmHg. The “Mean intraocular pressure of both eyes” value ([2]; 2.0 mg/mL in right eye, 6 hours after administration) was 7.11 mmHg, the “Mean intraocular pressure of both eyes” value ([2]; 2.0 mg/mL in right eye, 8 hours after administration) was 9.00 mmHg and the “Mean intraocular pressure of both eyes” value ([2]; 2.0 mg/mL in right eye, 10 hours after administration) was 10.05 mmHg. For the same compound, the “Mean intraocular pressure of both eyes” value ([2]; 2.0 mg/mL in right eye, before administration) was 9.72 mmHg, the “Mean intraocular pressure of both eyes” value ([2]; 4 mg/mL in right eye, 1 hour after administration) was 6.61 mmHg and the “Mean intraocular pressure of both eyes” value ([2]; 4 mg/mL in right eye, 2 hours after administration) was 5.84 mmHg. The “Mean intraocular pressure of both eyes” value ([2]; 4 mg/mL in right eye, 4 hours after administration) was 5.72 mmHg, the “Mean intraocular pressure of both eyes” value ([2]; 4 mg/mL in right eye, 6 hours after administration) was 6.61 mmHg and the “Mean intraocular pressure of both eyes” value ([2]; 4 mg/mL in right eye, 8 hours after administration) was 8.39 mmHg. For the same compound, the “Mean intraocular pressure of both eyes” value ([2]; 4 mg/mL in right eye, 10 hours after administration) was 10.67 mmHg, the “Mean intraocular pressure of both eyes” value ([2]; 4 mg/mL in right eye, before administration) was 10.00 mmHg and the “Efficacy of a single dose (highest hypotensive effect and action duration)” value ([2]; all test doses (0.25-4.0 mg/mL), compared with K-115) was “superior efficacy”.
